Assay results taken from patent publication US20260069539A1, “LIPIDOID COMPOUNDS AND RELATED COMPOSITIONS AND USES” (Poseida Therapeutics, Inc., priority 2023, published 2026).

Experiments:
liver cells [1] = experiment: In vivo LNP delivery of fLuciferase mRNA, bioluminescent imaging (BLI) at 4 hr; parameters: species or system BALB/C mice; conditions: for Mean Luciferase Flux: 0.5 mg/kg fLuc mRNA i.v., 4 hr; for Total Flux: 0.5 mg/kg fLuciferase mRNA intravenous
Description: Adult female BALB/C mice (n=3/group) were intravenously administered 0.5 mg/kg of 5′-CleanCap—fLuciferase mRNA (TriLink Biotech) formulated with the LNP compositions shown in Table 6. One group of mice was treated with vehicle (PBS, Thermo Fisher Scientific, USA) as a negative control.
(§1) The location and extent of luciferase expression in treated and control mice were determined at 4 hr for mRNA and 48 hr for DNA by bioluminescent imaging (BLI) of anesthetized mice using an IVIS Lumina in vivo imaging system (Perkin Elmer) according to the manufacturer's instructions. Briefly, mice were anesthetized using isoflurane in oxygen, and placed supine on a heated stage. Mice were then administered D-luciferin (Perkin-Elmer #122799) IP, and BLI was performed.
as §1, with “hr” for “hr for mRNA and 48 hr for DNA”
as §1, with “hr” for “hr for mRNA and 48 hr for DNA”
The location and extent of luciferase expression in treated and control mice were determined at 4 hr by bioluminescent imaging (BLI) of anesthetized mice using an IVIS Lumina in vivo imaging system (Perkin Elmer) according to the manufacturer's instructions.
Briefly, mice were anesthetized using isoflurane in oxygen, and placed supine on a heated stage. Mice were then administered D-luciferin (Perkin-Elmer #122799) IP, and BLI was performed.
as §1, with “hr” for “hr for mRNA and 48 hr for DNA”

liver cells [2] = experiment: In vivo LNP delivery of DNA encoding firefly luciferase, bioluminescent imaging (BLI) at 48 hr; parameters: species or system BALB/C mice; conditions: for Total Flux: Example 103, 0.5 mg/kg DNA intravenous; for Total Flux / Mean Luciferase Flux (p/s): BLI at 48 hr; for Mean Luciferase Flux (p/s): adult BALB/C mice, 0.5 mg/kg DNA encoding firefly luciferase in LNP
Description: Adult BALB/C mice (n=3) were administered 0.5 mg/kg of DNA encoding firefly luciferase (Nature Technology Corp) formulated in a LNP composition listed in Table 4. One group of mice was treated with vehicle (PBS, Thermo Fisher Scientific, USA) as a negative control.
as §1, with “at” for “at 4 hr for mRNA and”, “DNA delivery” for “DNA”
as §1, with “at” for “at 4 hr for mRNA and”, “performed. […]” for “performed.”
Body weight loss (BWL) measurements were taken at 24 hrs post administration and luciferase expression was measured by whole body luminescence imaging (BLI) at 48 hours post-administration. […]
Luciferase expression was measured by whole body luminescence imaging (BLI) at 48 hours post-administration.

[3] = Body weight change / body weight loss 24 hours post-administration of LNP; type: in vivo, BALB/C mice; conditions: fLuc mRNA 0.5 mg/kg i.v.
Description: In addition, the body weight of mice treated with LNP compositions of the present disclosure prepared as described in Example 77 was assessed prior to intravenous administration and 24 hours post-administration and the body weights at baseline and post-treatment were compared.
In addition, the body weight of mice treated with LNP compositions of the present disclosure was assessed prior to intravenous administration and 24 hours post-administration and the body weights at baseline and post-treatment were compared.
Body weight loss (BWL) measurements were taken at 24 hrs post administration and luciferase expression was measured by whole body luminescence imaging (BLI) at 48 hours post-administration.
Blood was drawn from control and treated mice 4 hrs post-administration for cytokine analysis, body weight loss (BWL) measurements were taken at 24 hrs post administration and luciferase expression was measured by whole body luminescence imaging (BLI) at 48 hours post-administration.

[4] = LNP with 50 % moles of COMPOUND NO. 38 or 39 (DOPC 10/Chol 38.5/PEG-DMG 1.5, Lipid:RNA 80)
[5] = Table 15 experiment, LNP with 40.75 % moles of the compound (Lipid:RNA 80)
[6] = Table 15 experiment, LNP with 50 % moles of the compound (Lipid:RNA 80)
[7] = LNP with 40.75 % moles of the compound
[8] = LNP with 50 % moles of the compound
[9] = LNP with 40.75 % moles of the compound (DOPC 5.0/Chol 51.75/PEG-DMG 2.5, Lipid:RNA 100)
[10] = LNP with 43.17 % moles of the compound (DOPC 11.96/Chol 43.17/PEG-DMG 1.7, Lipid:RNA 100)
[11] = LNP with 54.0 % moles of the compound (DOPC 10.0/Chol 35.0/PEG-DMG 1.0, Lipid:RNA 100)
[12] = Example 104, experiment of Table 65, BLI at 4 hr
[13] = Example 104, experiment of Table 63, BLI at 4 hr
[14] = Example 104, experiment of Table 64, BLI at 4 hr

Compound: CCCCC[C@H]1CC[C@H](C(=O)OCC(COC(=O)CCCCCN(CCCCO)CCCCCC(=O)COC(COC(=O)[C@H]2CC[C@H](CCCCC)CC2)COC(=O)[C@H]2CC[C@H](CCCCC)CC2)COC(=O)[C@H]2CC[C@H](CCCCC)CC2)CC1 [COMPOUND NO. 38]
- Mean Luciferase Flux (liver cells [1]; [4]): 1.17E+11 p/s
- Total Flux (liver cells [2]; LNP with 10% DSPC): 8.29E+07 p/s

Compound: CCCCCC(=O)OCC1CCC(COC(=O)C(CCCN(C)CCCC(C(=O)OCC2CCC(COC(=O)CCCCC)CC2)C(=O)OCC2CCC(COC(=O)CCCCC)CC2)C(=O)OCC2CCC(COC(=O)CCCCC)CC2)CC1 (stereo not drawn) [COMPOUND NO. 41]
- Mean Luciferase Flux (liver cells [1]; [5]): 3.79E+09 p/s
- Mean Luciferase Flux (liver cells [1]; [6]): 5.26E+09 p/s
- % body weight change [3, 7]: −1.8%
- % body weight change [3, 8]: −2.6%

Compound: CCCCCC1CCC(C(=O)OCCOC(=O)CCN(CCCN(C)CCN(CCC(=O)OCCOC(=O)[C@H]2CC[C@H](CCCCC)CC2)CCC(=O)OCCOC(=O)[C@H]2CC[C@H](CCCCC)CC2)CCC(=O)OCCOC(=O)C2CCC(CCCCC)CC2)CC1 (stereo partly drawn) [COMPOUND NO. 4]
- Mean Luciferase Flux (p/s) (liver cells [2]): 1.36E+09 p/s

Compound: CC(C)CCCC1CCC(COC(=O)C(CCCN(CCO)CCCC(C(=O)OCC2CCC(CCCC(C)C)CC2)C(=O)OCC2CCC(CCCC(C)C)CC2)C(=O)OCC2CCC(CCCC(C)C)CC2)CC1 (stereo not drawn) [COMPOUND NO. 42]
- Mean Luciferase Flux (liver cells [1]; [5]): 1.23E+09 p/s
- Mean Luciferase Flux (liver cells [1]; [6]): 8.27E+09 p/s
- % body weight change [3, 7]: −2.3%
- % body weight change [3, 8]: −4.0%

Compound: CCCCCC1CCC(C(=O)OCCOC(=O)CCN(CCCN(C)CCCN(CCC(=O)OCCOC(=O)[C@H]2CC[C@H](CCCCC)CC2)CCC(=O)OCCOC(=O)[C@H]2CC[C@H](CCCCC)CC2)CCC(=O)OCCOC(=O)C2CCC(CCCCC)CC2)CC1 (stereo partly drawn) [COMPOUND NO. 3]
- Mean Luciferase Flux (p/s) (liver cells [2]): 2.12E+08 p/s

Compound: CC(C)CCCC1CCC(COC(=O)CCN(CCCN(C)CCCN(CCC(=O)OCC2CCC(CCCC(C)C)CC2)CCC(=O)OCC2CCC(CCCC(C)C)CC2)CCC(=O)OCC2CCC(CCCC(C)C)CC2)CC1 (stereo not drawn) [COMPOUND NO. 1]
- Mean Luciferase Flux (liver cells [1]; [9]): 8.79E+09 p/s
- Mean Luciferase Flux (liver cells [1]; [10]): 1.01E+10 p/s
- Mean Luciferase Flux (liver cells [1]; [11]): 6.15E+08 p/s

Compound: O=C(CCCCCN(CCCCO)CCCCCC(=O)OCC(COC(=O)CCCCC1CCCCC1)COC(=O)CCCCC1CCCCC1)OCC(COC(=O)CCCCC1CCCCC1)COC(=O)CCCCC1CCCCC1 [COMPOUND NO. 67]
- Total Flux (liver cells [1]; [12]): 3.79E+11 p/s

Compound: CCCCC[C@H]1CC[C@H](C(=O)OCC(COC(=O)CCCCCN(CCCCCC(=O)OCC(COC(=O)[C@H]2CC[C@H](CCCCC)CC2)COC(=O)[C@H]2CC[C@H](CCCCC)CC2)C[C@@H](C)O)COC(=O)[C@H]2CC[C@H](CCCCC)CC2)CC1 [COMPOUND NO. 57]
- Total Flux (liver cells [1]; [13]): 9.69E+10 p/s

Compound: CCCCC[C@H]1CC[C@H](C(=O)OCC(COC(=O)CCCCCN(CCCCCO)CCCCCC(=O)OCC(COC(=O)[C@H]2CC[C@H](CCCCC)CC2)COC(=O)[C@H]2CC[C@H](CCCCC)CC2)COC(=O)[C@H]2CC[C@H](CCCCC)CC2)CC1 [COMPOUND NO. 51]
- Total Flux (liver cells [1]; [13]): 2.65E+10 p/s

Compound: CN(CCCN(CCC(=O)OCC1CCC(CCCCC2CCCCC2)CC1)CCC(=O)OCC1CCC(CCCCC2CCCCC2)CC1)CCCN(CCC(=O)OCC1CCC(CCCCC2CCCCC2)CC1)CCC(=O)OCC1CCC(CCCCC2CCCCC2)CC1 (stereo not drawn) [COMPOUND NO. 2]
- Mean Luciferase Flux (liver cells [1]; [9]): 2.53E+07 p/s

Compound: CCCCCCCCC(CCCCCCCC)OC(=O)C1CCC(C(=O)OCCCCCN(CCO)CCCCCCCOC(=O)C2CCC(CCCCC)CC2)CC1 (stereo not drawn) [COMPOUND NO. 34]
- Mean Luciferase Flux (liver cells [1]; Table 13 experiment, LNP with 50 % moles of the compound (DOPC 10/Chol 38.5/PEG-DMG 1.5, Lipid:RNA 80)): 1.87E+10 p/s

Compound: CCCCC[C@H]1CC[C@H](C(=O)OCC(COC(=O)CCCCCN(CCCCCC(=O)OCC(COC(=O)[C@H]2CC[C@H](CCCCC)CC2)COC(=O)[C@H]2CC[C@H](CCCCC)CC2)[C@H]2CC[C@H](O)CC2)COC(=O)[C@H]2CC[C@H](CCCCC)CC2)CC1 [COMPOUND NO. 53]
- Total Flux (liver cells [2]; LNP with 10% DOPC): 4.23E+07 p/s

Compound: CCCCCC(=O)OCC1CCC(COC(=O)CCN(CCCN(C)CCCN(CCC(=O)OCC2CCC(COC(=O)CCCCC)CC2)CCC(=O)OCC2CCC(COC(=O)CCCCC)CC2)CCC(=O)OCC2CCC(COC(=O)CCCCC)CC2)CC1 (stereo not drawn) [COMPOUND NO. 8]
- Mean Luciferase Flux (liver cells [1]; [9]): 1.27E+11 p/s
- Mean Luciferase Flux (liver cells [1]; [10]): 3.31E+11 p/s
- Mean Luciferase Flux (liver cells [1]; [11]): 2.33E+11 p/s

Compound: CCCCC(CC)CCCCOC(=O)C(CCCN(CCCO)CCCC(C(=O)OCCCCC1CCCCC1)C(=O)OCCCCC1CCCCC1)C(=O)OCCCCC1CCCCC1 (stereo not drawn) [COMPOUND NO. 44]
- Total Flux (liver cells [1]; [13]): 5.73E+08 p/s

Compound: CCCCC[C@H]1CC[C@H](C(=O)OCC(COC(=O)CCCCCN(CCCCCC(=O)COC(COC(=O)[C@H]2CC[C@H](CCCCC)CC2)COC(=O)[C@H]2CC[C@H](CCCCC)CC2)CCCCNC(C)=O)COC(=O)[C@H]2CC[C@H](CCCCC)CC2)CC1 [COMPOUND NO. 39]
- Mean Luciferase Flux (liver cells [1]; [4]): 9.49E+10 p/s
- Total Flux (liver cells [2]; LNP with 10% DOPC): 2.03E+06 p/s

Compound: CCCCC[C@H]1CC[C@H](C(=O)OCC(COC(=O)CCCCN(CCO)CCCCC(=O)OCC(COC(=O)[C@H]2CC[C@H](CCCCC)CC2)COC(=O)[C@H]2CC[C@H](CCCCC)CC2)COC(=O)[C@H]2CC[C@H](CCCCC)CC2)CC1 [COMPOUND NO. 71]
- Total Flux (liver cells [1]; [12]): 1.78E+11 p/s

Compound: CCCCC[C@H]1CC[C@H](C(=O)OCC(COC(=O)CCCCCN(CCCCCC(=O)OCC(COC(=O)[C@H]2CC[C@H](CCCCC)CC2)COC(=O)[C@H]2CC[C@H](CCCCC)CC2)Cc2ccccc2)COC(=O)[C@H]2CC[C@H](CCCCC)CC2)CC1 [COMPOUND NO. 63]
- Total Flux (liver cells [1]; [14]): 3.48E+05 p/s

Compound: CCCCCCCCCCCC(=O)OCC(COC(=O)CCCCCCCCCCC)COC(=O)CCCCCN(CCO)CCCCCC(=O)OCC(COC(=O)CCCCCCCCCCC)COC(=O)CCCCCCCCCCC [compound 100, reference compound]
- RNA delivery potency (liver cells [1]; 0.5 mg/kg fLuciferase mRNA in LNP, BLI at 4 hr): RNA delivery potency increases with increasing number of cyclohexyl-substituted tails
- Total Flux (liver cells [1]; [14]): 3.24E+10 p/s
- DNA delivery potency (liver cells [2]; 0.5 mg/kg DNA, BLI 48 hr, compared to LNPs comprising COMPOUND NOS. 36, 37, or 38): greatly reduced
- Total Flux (liver cells [2]; LNP comprising compound 100, composition not stated): 1.97E+07 p/s
